Laboratory results published in patent US8551721B2, “Bioluminescent detection of cyanohydroxy benzothiazole compounds” (Promega Corporation, priority 2008, dated 2013).

How the values were obtained:
Format in all cases: biochemical
UGT 1A4 = target: T1, UGT 1A4 (Homo sapiens, UniProt P22310); assay: UGT activity: utilization of substrate by recombinant UGT 1A4 Supersomes; details: 2 hour incubation at 37° C., plus vs minus UDPGA
T1 construct: purchased BD Gentest; host or cells: insect cells (microsomes)
T1 sequence (P22310 29-534): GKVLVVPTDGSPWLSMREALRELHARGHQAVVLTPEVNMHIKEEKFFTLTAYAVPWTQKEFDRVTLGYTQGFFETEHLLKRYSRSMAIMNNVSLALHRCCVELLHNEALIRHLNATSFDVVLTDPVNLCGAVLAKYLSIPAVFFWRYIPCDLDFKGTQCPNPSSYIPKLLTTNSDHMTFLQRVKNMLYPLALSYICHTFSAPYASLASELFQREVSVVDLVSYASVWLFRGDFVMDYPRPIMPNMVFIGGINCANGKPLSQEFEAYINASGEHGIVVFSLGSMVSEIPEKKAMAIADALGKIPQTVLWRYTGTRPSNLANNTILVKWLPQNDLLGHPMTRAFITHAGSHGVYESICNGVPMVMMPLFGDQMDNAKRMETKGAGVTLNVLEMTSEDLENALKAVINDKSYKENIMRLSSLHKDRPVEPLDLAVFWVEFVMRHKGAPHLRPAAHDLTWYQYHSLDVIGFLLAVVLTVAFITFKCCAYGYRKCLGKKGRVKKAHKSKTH
Procedure: (§1) The invention includes a method of determining activity of the uridine 5′-diphospho-glucuronosyltransferase (UDP-glucuronosyltransferase, or UGT) family enzymes in vitro. Briefly, UGT enzymes from overexpressed insect microsomes (Supersomes™, BD Gentest™) or animal tissue microsomes (Xenotech, BD Gentest™) were incubated with a cyanobenzothiazole substrate of the invention and the cofactor UDP-glucuronic acid (UDPGA) at 37° C. in buffer at physiological pH containing MgCl2 and alamethicin (typically, 50 mM TES, pH 7.5, 8 mM MgCl2, 4 mM UDPGA (Sigma) and 25 μg/mL alamethicin (Sigma)). Following the UGT enzyme reaction, an equal volume of P450-Glo Luciferin Detection Reagent (Promega) containing 15-30 mM D-cysteine-HCl.H2O (Sigma) was added and the plate was mixed and incubated at room temperature, typically for 20-30 minutes. P450-Glo Luciferin Detection Reagent can be prepared by dissolving a vial of Promega Luciferin Detection Reagent (Promega Part #V859B) with a vial of Promega P450-Glo Buffer (Promega Part #V865B).
(§2) During this incubation, the cysteine reacts with the cyanobenzathiozole substrate to yield a D-luciferin derivative. […] Therefore, activity of the UGT enzyme can be measured by analyzing the difference (lower or no output) in relative light units (RLU) of a sample in which glucuronidation occurs compared to a sample that was run under the same conditions with no added UDPGA cofactor.
In this example, a series of 12 recombinant UGTs expressed in insect microsomes (Supersomes™, BD Gentest™), as well as the control microsomes not expressing the UGT enzyme, were incubated with compound 3138, compound 3478, or compound 3165 as substrates, with or without the UDPGA co-factor. […]
(§3) Reactions were assembled in a white 96-well plate. […] After the incubation was completed, the plate was read on a Veritas™ luminometer (Turner BioSystems, Inc.; Sunnyvale, Calif.). […]

UGT 2B4 = target: T2, UGT 2B4 (Homo sapiens, UniProt P06133); assay: UGT activity: utilization of substrate by recombinant UGT 2B4 Supersomes; details: 2 hour incubation at 37° C., plus vs minus UDPGA
T2 construct: purchased BD Gentest; host or cells: insect cells (microsomes)
T2 sequence (P06133 24-528): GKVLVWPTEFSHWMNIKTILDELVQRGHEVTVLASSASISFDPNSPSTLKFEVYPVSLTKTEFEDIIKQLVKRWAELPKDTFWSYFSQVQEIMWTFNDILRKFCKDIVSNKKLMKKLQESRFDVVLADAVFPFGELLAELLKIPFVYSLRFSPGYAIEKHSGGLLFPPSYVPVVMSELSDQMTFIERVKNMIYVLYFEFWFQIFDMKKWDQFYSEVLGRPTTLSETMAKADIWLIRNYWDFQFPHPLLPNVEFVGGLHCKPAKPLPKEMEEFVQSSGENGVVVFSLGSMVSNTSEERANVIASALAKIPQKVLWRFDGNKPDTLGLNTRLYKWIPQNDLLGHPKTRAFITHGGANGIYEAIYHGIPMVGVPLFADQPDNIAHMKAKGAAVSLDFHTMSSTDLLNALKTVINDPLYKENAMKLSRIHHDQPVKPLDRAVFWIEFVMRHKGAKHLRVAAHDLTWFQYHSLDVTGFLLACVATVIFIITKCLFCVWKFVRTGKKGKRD
Procedure: as §1, with “P450-Glo Luciferin Detection Reagent can be prepared by dissolving a vial of Promega Luciferin Detection Reagent (Promega Part #V859B) with a vial of Promega P450-Glo Buffer (Promega Part #V865B).” left out
as §2, with “cofactor. […]” for “cofactor.”
as §3

UGT 1A9 = target: T3, UGT 1A9 (Homo sapiens, UniProt O60656); assay: UGT activity: utilization of substrate by recombinant UGT 1A9 Supersomes; details: 2 hour incubation at 37° C., plus vs minus UDPGA, background corrected
T3 construct: purchased BD Gentest; host or cells: insect cells (microsomes)
T3 sequence (O60656 26-530): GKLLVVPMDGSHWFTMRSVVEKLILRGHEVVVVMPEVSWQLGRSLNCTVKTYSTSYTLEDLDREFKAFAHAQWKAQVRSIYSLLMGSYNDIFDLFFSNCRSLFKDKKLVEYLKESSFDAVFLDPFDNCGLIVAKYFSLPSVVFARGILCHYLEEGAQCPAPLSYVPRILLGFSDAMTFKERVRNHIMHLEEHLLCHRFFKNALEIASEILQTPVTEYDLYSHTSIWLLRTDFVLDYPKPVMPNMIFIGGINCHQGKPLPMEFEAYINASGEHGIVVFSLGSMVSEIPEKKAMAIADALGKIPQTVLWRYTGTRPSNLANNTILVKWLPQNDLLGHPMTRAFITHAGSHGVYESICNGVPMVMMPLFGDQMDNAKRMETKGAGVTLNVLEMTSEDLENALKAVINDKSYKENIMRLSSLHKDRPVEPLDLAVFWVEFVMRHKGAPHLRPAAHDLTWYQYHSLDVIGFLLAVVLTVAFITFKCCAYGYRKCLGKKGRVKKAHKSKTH
Procedure: as §1, with “P450-Glo Luciferin Detection Reagent can be prepared by dissolving a vial of Promega Luciferin Detection Reagent (Promega Part #V859B) with a vial of Promega P450-Glo Buffer (Promega Part #V865B).” left out
as §2, with “cofactor. […]” for “cofactor.”
as §3

Row | Compound | utilization by UGT 1A4 (in words) (UGT 1A4) | utilization by UGT 2B4 (in words) (UGT 2B4) | % utilization by UGT 1A9 (UGT 1A9)
1 | Cc1cc(O)cc2sc(C#N)nc12 [compound 3138] | did not utilize either compound 3138 or 3478 to an appreciable extent | did not utilize either compound 3138 or 3478 to an appreciable extent | over 50%
2 | Cc1cc(O)cc2sc(C3=NC(C(=O)O)CS3)nc12 (stereo not drawn) [compound 3478] | did not utilize either compound 3138 or 3478 to an appreciable extent | did not utilize either compound 3138 or 3478 to an appreciable extent | ≤ 15%
